What was measured:
Type in all cases: biochemical
SIRT6 [1] = molecular target: T1, SIRT6 (Homo sapiens, UniProt Q8N6T7); assay: Small molecule SIRT6 activator screen (H3K9ac peptide deacetylation, HPLC); conditions: compound 100 μM; SIRT6 1 μM; H3K9ac peptide 20 μM; 0.5 mM NAD+
Description: Mastermix containing SIRT6, buffer, and H3K9ac peptide were distributed to wells using Microflex peristaltic dispenser (Beckman). Plates were spun and preheated to 37° C. before addition of NAD^+ using peristaltic dispenser. After 60 minutes reactions were quenched with 2% TFA final using peristaltic dispenser then sealed and spun again before in-house HPLC separation and quantification of substrate and product peptides. Reaction conditions were 1 μM SIRT6, 0.5 mM NAD^+, […] (4-16), 20 mM potassium phosphate pH 7.5, 10% DMSO, and either 10 or 100 μM compound determined by 10-fold dilution of stock library concentration.
All sirtuin deacylation assays were carried out at 37° C. in 20 mM potassium phosphate pH 7.5 with 0.5 mM NAD^+, 10% DMSO, and 20 μM H3K9ac or H3K9myr peptides, unless otherwise noted in legend, and quenched by the addition of 2% TFA final. Steady-state reactions were constrained to less than 20% substrate turnover to prevent product inhibition. A variety of times were required to monitor SIRT6 deacetylation (2-60 minutes) under this restraint given the ability to strongly activate catalysis. In these cases, specific activities were determined and either reported as is or as fold-activation of specific activity. […] Deacetylation reactions were analyzed using a gradient of 33-100% B (30% acetonitrile with 0.05% TFA) in 8 min at 1.6 mL min^−1. Demyristoylation reactions were analyzed using a gradient of 3 to 100% B (acetonitrile with 0.05% TFA) in 10 min at 1.6 mL min^−1. The product and substrate peaks were quantified and ratio of these allowed for quantification of product formation.

SIRT6 [2] = molecular target: T1, SIRT6; assay: SIRT6 deacetylation of H3K9ac peptide, fold-activation versus activator concentration; conditions: for EC50: H3K9ac peptide 20 μM, sigmoidal curve fit
Description: (1A) Compound libraries BML-2803, BML-2800, and an additional set of 178 molecules were screened at 100 μM for their ability to stimulate SIRT6 (1 μM) deacetylation of H3K9ac peptide (20 μM) in the presence of 0.5 mM NAD^+. SIRT6 activity was measured by HPLC quantification of H3K9ac and deacetylated product (inset) and fold activations relative to DMSO control were determined and compiled. (1B) Fold-activation of SIRT6 (1 μM) determined in the presence of either 0-400 μM CL4, 0-150 μM TTNPB, 0-100 μM Lysophosphatidic acid (LPA), or 0-200 μM linoleoylglycine (LGly). Maximum fold-activation and EC50 determined by sigmoidal curve fit. (1C) Steady-state kinetic analysis of SIRT6 (1 μM) deacetylation was conducted with 0-250 μM H3K9ac peptide in the presence of 100 μM CL4, 50 μM TTNPB, 50 μM LPA, or 50 μM LGly. Constants Km, H3K9ac and kcat were determined by fitting data to Michaelis-Menten equation. (1D) Fold-activations of SIRT1 (0.1 μM), SIRT2 (0.2 μM), SIRT3 (1 μM), SIRT5 (2 μM), and SIRT6 (1 μM) determined in the presence of CL4 (100 μM), TTNPB (50 μM), and LPA (50 μM) relative to DMSO control against 20 μM H3K9ac peptide and 0.5 mM NAD^+. Mean values reported with error bars representing standard deviation of at least three replicates.
All sirtuin deacylation assays were carried out at 37° C. in 20 mM potassium phosphate pH 7.5 with 0.5 mM NAD^+, 10% DMSO, and 20 μM H3K9ac or H3K9myr peptides, unless otherwise noted in legend, and quenched by the addition of 2% TFA final. Steady-state reactions were constrained to less than 20% substrate turnover to prevent product inhibition. A variety of times were required to monitor SIRT6 deacetylation (2-60 minutes) under this restraint given the ability to strongly activate catalysis. In these cases, specific activities were determined and either reported as is or as fold-activation of specific activity. Deacylation reactions were analyzed by reversed phase high-performance liquid chromatography on a Kinetex C18 column (100 Å, 100×4.6 mm, 2.6 μm, Phenomenex) by monitoring the formation of the deacylated product at 214 nm. Deacetylation reactions were analyzed using a gradient of 33-100% B (30% acetonitrile with 0.05% TFA) in 8 min at 1.6 mL min^−1. Demyristoylation reactions were analyzed using a gradient of 3 to 100% B (acetonitrile with 0.05% TFA) in 10 min at 1.6 mL min^−1. The product and substrate peaks were quantified and ratio of these allowed for quantification of product formation. […]

SIRT6 [3] = molecular target: T1, SIRT6; assay: Histone deacetylation assay with acid extracted histones, H3K9ac immunoblot; conditions: 50 μM compound; histones 75 μg/mL from SAHA-treated HEK293T cells; SIRT6 1 μM
Description: HEK293T cells were cultured in Dulbecco's Modified Eagle Medium supplemented with 10% fetal bovine serum. Cells were treated with 10 μM SAHA for 24 hours prior to harvest. Cells were trypsinized and pelleted prior to washing twice with ice-cold PBS. Cells were then resuspended in 800 μL ice-cold 10 mM HEPES pH 7.4, 10 mM KCl, 0.05% NP-40, and histone deacetylase and protease inhibitors (1 mM sodium butyrate, 4 μM trichostatin A, 100 μM phenylmethylsulfonyl fluoride, 10 μg/mL leupeptin, and 10 μg/mL aprotinin) for 20 minutes. After a 1,000×g 10 minute spin at 4° C. the pelleted nuclei were resuspended in 0.2 M HCl and incubated on ice for 20 minutes. Following 10 minute spin at 21,000×g at 4° C. the acid extracted supernatant was neutralized with 1 M Tris-HCl pH 8 prior to BCA protein concentration measurement. Histone deacetylation assays were ran with 75 μg/mL extracted histones, 1 μM SIRT6, 50 μM CL5, CL5D or 5% DMSO control, 0.5 mM NAD^+, in 20 mM potassium phosphate pH 7.5. Reactions ran at 37° C. prior to quench with SDS loading dye and 5 minute boil. 540 ng of nuclei acid extract following sirtuin reaction were loaded for 15% SDS-PAGE followed by transfer to nitrocellulose. Membrane was blocked with 1% milk before blotted with anti-H3K9ac (Active Motiff 39917) 1:3000 and imaged. […] Bands were quantified using Image Studio Lite (LiCor). […]

T1 sequence (Q8N6T7 whole entry): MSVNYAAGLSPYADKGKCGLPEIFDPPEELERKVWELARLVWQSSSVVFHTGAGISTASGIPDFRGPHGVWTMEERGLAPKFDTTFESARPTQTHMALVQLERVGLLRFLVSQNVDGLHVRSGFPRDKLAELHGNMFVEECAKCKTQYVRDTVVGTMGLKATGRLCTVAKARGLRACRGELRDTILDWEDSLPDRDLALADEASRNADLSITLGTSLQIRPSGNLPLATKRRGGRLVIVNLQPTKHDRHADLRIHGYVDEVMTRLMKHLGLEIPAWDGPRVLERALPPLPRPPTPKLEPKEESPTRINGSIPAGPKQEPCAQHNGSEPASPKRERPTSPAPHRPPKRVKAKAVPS

Row | Compound | F.A. (fold-activation of SIRT6 relative to DMSO control) (SIRT6 [1]) | further results
1 | CCCCC/C=C\C/C=C\C/C=C\C/C=C\CCCC(=O)O [Arachidonic acid (20:4 n-6)] | 15 fold | –
2 | CCCCCCCC/C=C\CCCCCCCC(=O)OCC(O)COP(=O)(O)O (stereo not shown) [Lysophosphatidic acid, oleoyl-lysophosphatidic acid, reference compound] | – | EC50 (SIRT6 [2]; SIRT6 1 μM, 0.5 mM NAD+): 25 ± 1 µM
3 | O=C(O)c1ccc2c(c1)C(=O)N(c1ccc(NC(=O)c3ccccc3)cc1)C2=O [CL-5, 2-(4-benzamidophenyl)-1,3-dioxoisoindoline-5-carboxylic acid] | – | concentration required to stimulate 4-fold activation of SIRT6 (SIRT6 [2]; SIRT6 1 μM, H3K9ac 20 μM, 0.5 mM NAD+): >400 µM; activation of SIRT6 (in words) (SIRT6 [2]; concentrations up to 400 μM): no activation; SIRT6 deacetylation at H3K9 of whole histone substrate (in words) (SIRT6 [3]): not
4 | Eicosatrienoic acid (20:3 n-3) | 17 fold | –
5 | C/C(=C\c1ccc(C(=O)O)cc1)c1ccc2c(c1)C(C)(C)CCC2(C)C [TTNPB, arotinoid acid, reference compound] | – | EC50 (SIRT6 [2]; SIRT6 1 μM, 0.5 mM NAD+): 53 ± 3 µM
6 | CCCCCCCCCCCCCCC(F)C(=O)O (stereo not shown) [2-Fluoropalmitic acid] | 25 fold | –

Further lines, with some results ahead:

Row | F.A. (fold-activation of SIRT6 relative to DMSO control) (SIRT6 [1]) | Compound | further results
7 | 3.7 fold | CCCCCCCCCCCCCC(=O)O [myristic acid] | –
8 | 16 fold | CCCCCCCC/C=C\C/C=C\C/C=C\CCCC(=O)O [Mead acid (20:3 n-9)] | –
